# Results published in patent US20150209315A1 (Cumberland Pharmaceuticals, priority 2009, published 2015).
# Assays:
# [1] = system: patients undergoing orthopedic surgical procedures; assay: Example 3: morphine use post-surgery through study hour 28; format: in vivo, human; settings: for Morphine Requirement, LS Means Difference (95% CI): 800 mg vs placebo; for Morphine Requirement, LS Means Difference (95% CI) / Morphine Requirement, LS Means (SE) / Morphine Requirement, Mean (SD) / Morphine Requirement, Median: Post-Op-28 hours; for decrease in the mean morphine used in the postoperative period / Morphine Requirement, LS Means (SE) / Morphine Requirement, Mean (SD) / Morphine Requirement, Median: 800 mg
# [2] = system: post-operative adult patients; assay: Example 1: adverse events and safety labs; format: in vivo, human
# Protocol: Patients were evaluated and compared for morphine requirements between the active doses and placebo using analysis of variance and covariance procedures at an overall alpha level of 0.05. Secondary efficacy parameters were also evaluated and compared among the treatment groups using appropriate statistical methods described in the statistical analysis section of the protocol. Safety information was compared between the treatment groups using Chi-Square or Cochran-Mantel-Haenszel test. Demographic, background and baseline information among the treatment groups was also described.
# [3] = system: fever in hospitalized patients; assay: Clinical trials of intravenous ibuprofen for fever; format: in vivo, human
# patients = assay: Safety in all clinical studies conducted to date; format: in vivo, human; settings: for postoperative GI bleeding or renal complications: up to 5 days of treatment, abdominal and orthopedic surgical procedures
# [4] = system: patients with fever and severe sepsis; settings: cited from earlier work
# [5] = system: post-operative adult patients; assay: Example 2: treatment failures; format: in vivo, human; settings: 800 mg; ITT
# Protocol: Eligible patients were randomized to one of the two treatment groups. All patients were able (but were not required) to receive morphine until approximately 45 minutes before the end of the surgical procedure. After that time, only fentanyl was allowed until the end of the operation. The first dose of ibuprofen was administered at approximately the initiation of skin closure. […] Other than ibuprofen or placebo, only morphine was administered for pain. […] Additional morphine could be administered at the discretion of the treating physician if adequate pain control had still not been achieved. Patients given non-morphine analgesics were classified as treatment failures. Treatment failures were not replaced. A treatment failure was defined as a patient that required narcotic pain medication, other than morphine, or non-narcotic medications including the use of another NSAID through the treatment period. If other narcotics (other than morphine) or NSAIDS were started, CTM was discontinued.
# [6] = system: post-operative adult patients; assay: Example 2: patient self-assessment of pain, VAS at rest; format: in vivo, human; settings: 800 mg
# [7] = system: patients undergoing orthopedic surgical procedures; assay: Example 3: pain with movement measured with VAS; format: in vivo, human; settings: 800 mg, immediately post-surgery
# Protocol: Efficacy was measured by comparing the reduction in morphine use over the 24 hours immediately post surgery. Efficacy was measured by reduction in the requirement for the narcotic analgesic, morphine, in the 24 hours post surgery.
# The Clinical Trial Material (“CTM”) was mixed in 250 mL normal saline. Saline was chosen as the control group (placebo) for this study, to ensure blinding and allow for analysis of treatment effect.
# The study participants were randomized based on criteria for an efficacy evaluable population (EEP) versus an intent to treat population (ITT).
# Eligible patients were randomized to one of the two treatment groups.
# Patients were evaluated and compared for morphine requirements between the active doses and placebo using analysis of variance and covariance procedures at an overall alpha level of 0.05. Secondary efficacy parameters were also evaluated and compared among the treatment groups using appropriate statistical methods described in the statistical analysis section of the protocol. For the adverse events, instead of using an unadjusted Chi-square test and a Cochran-Mantel-Haenszel test adjusted for center to compare treatment groups with respect to the numbers of patients reporting AEs, a Fisher's exact test was used to compare treatment groups for any AE that was reported by five or more patients.
compound,measurement,setting,value
"CC(C)Cc1ccc(C(C)C(=O)O)cc1 (stereo not drawn) [Ibuprofen, 2-(4-isobutylphenyl) propionic acid]","Morphine Requirement, LS Means Difference (95% CI)",[1]; AT,"−16.6 (−24.7, −8.4)"
same,"Morphine Requirement, LS Means Difference (95% CI)",[1]; EEP,"−18.1 (−27.2, −9.0)"
same,"Morphine Requirement, LS Means Difference (95% CI)",[1]; ITT,"−16.4 (−24.6, −8.1)"
same,decrease in the mean morphine used in the postoperative period,[1]; AT,30.9%
same,"Morphine Requirement, LS Means (SE)",[1]; AT,44.3 (5.7)
same,"Morphine Requirement, Mean (SD)",[1]; AT,41.1 (27.3)
same,"Morphine Requirement, Median",[1]; AT,38.0
same,"Morphine Requirement, LS Means (SE)",[1]; EEP,43.7 (5.9)
same,"Morphine Requirement, Mean (SD)",[1]; EEP,43.7 (26.9)
same,"Morphine Requirement, Median",[1]; EEP,40.5
same,decrease in the mean morphine used in the postoperative period,[1]; EPP,33.3%
same,decrease in the mean morphine used in the postoperative period,[1]; ITT,30.3%
same,"Morphine Requirement, LS Means (SE)",[1]; ITT,45.2 (5.8)
same,"Morphine Requirement, Mean (SD)",[1]; ITT,41.9 (26.9)
same,"Morphine Requirement, Median",[1]; ITT,38.0
same,patients experiencing nausea vs placebo,[2]; 400 mg,significant reduction
same,bleeding or renal complications,[2]; 400 mg and 800 mg,no additional bleeding or renal complications
same,patients experiencing serious adverse events vs placebo,[2]; 400 mg and 800 mg,no significant differences in the number of patients experiencing serious adverse events between groups
same,Dizziness vs placebo,[2]; 800 mg,experienced more often
same,patients experiencing diarrhea vs morphine only (placebo),[2]; 800 mg,significant reduction
same,patients experiencing nausea vs placebo,[2]; 800 mg,trending toward significance
same,patient deaths,[2]; 14 day study,no patient deaths
same,patients experiencing gastrointestinal disorders and fever vs morphine only (placebo),[2]; both 400 mg and 800 mg,significant reduction
same,treated patients with reduced fever,[3]; at 4 hours,100%
same,placebo-treated vs IV Ibuprofen treated patients with uncontrolled fever,[3]; at 24 hours,~4 times
same,reduction in temperature,"[3]; critically ill patients, 48-hour study period",Significant reduction in temperature was maintained
same,acetaminophen requirement and fever control vs acetaminophen alone,"[3]; critically ill patients, subset analysis",required less acetaminophen and had better fever control
same,Rapid fever reduction seen as fast as,[3]; malaria patients,30 min
same,patients with significant fever reduction,"[3]; phase 3 clinical trial, within 4 hours, vs 32% with placebo",77%
same,impact on key metabolic and hematologic parameters,patients; all clinical studies conducted to date,no impact
same,patients with at least one morphine side effect vs placebo,"patients; clinical trials, postoperative",significantly fewer patients
same,postoperative GI bleeding or renal complications,patients; listed as IV Ibuprofen,No postoperative GI bleeding or renal complications were seen
same,postoperative GI bleeding or renal complications,patients; listed as intravenous ibuprofen,No bleeding or renal toxicity was reported
same,adverse event profile,patients; vs placebo,comparable to placebo
same,"safety (renal function, gastrointestinal bleeding, transfusion requirements, other SAEs)","[4]; in vivo, iv",safe
same,"effect on fever, pulse rate and lactic acidosis","[4]; patients with sepsis, intravenous",reduced fever and pulse rate and lessened lactic acidosis
same,"treatment failures, number of patients",[5],7
same,"treatment failures, percent of patients",[5],4%
same,VAS Score measured at Rest (median),"[6]; EEP, 1-Hour",8.0
same,"VAS Score measured at Rest, % Reduction vs Placebo","[6]; EEP, 1-Hour",0.0%
same,VAS Score measured at Rest (median),"[6]; EEP, 3-Hour",5.0
same,"VAS Score measured at Rest, % Reduction vs Placebo","[6]; EEP, 3-Hour",16.7%
same,VAS Score measured at Rest (median),"[6]; EEP, 6-Hour",4.0
same,"VAS Score measured at Rest, % Reduction vs Placebo","[6]; EEP, 6-Hour",20.0%
same,VAS Score measured at Rest (median),"[6]; EEP, 9-Hour",3.0
same,VAS Score measured at Rest (median),"[6]; EEP, 12-Hour",2.5
same,"VAS Score measured at Rest, % Reduction vs Placebo","[6]; EEP, 12-Hour",16.7%
same,VAS Score measured at Rest (median),"[6]; EEP, 15-Hour",2.0
same,"VAS Score measured at Rest, % Reduction vs Placebo","[6]; EEP, 15-Hour",33.3%
same,VAS Score measured at Rest (median),"[6]; EEP, 18-Hour",2.0
same,"VAS Score measured at Rest, % Reduction vs Placebo","[6]; EEP, 18-Hour",33.3%
same,VAS Score measured at Rest (median),"[6]; EEP, 21-Hour",1.0
same,"VAS Score measured at Rest, % Reduction vs Placebo","[6]; EEP, 21-Hour",66.7%
same,VAS Score measured at Rest (median),"[6]; EEP, 24-Hour",2.0
same,"VAS Score measured at Rest, % Reduction vs Placebo","[6]; EEP, 24-Hour",33.3%
same,VAS Score measured at Rest (median),"[6]; ITT, 1-Hour",8.0
same,"VAS Score measured at Rest, % Reduction vs Placebo","[6]; ITT, 1-Hour",0.0%
same,VAS Score measured at Rest (median),"[6]; ITT, 3-Hour",5.7
same,"VAS Score measured at Rest, % Reduction vs Placebo","[6]; ITT, 3-Hour",5.0%
same,VAS Score measured at Rest (median),"[6]; ITT, 6-Hour",4.0
same,"VAS Score measured at Rest, % Reduction vs Placebo","[6]; ITT, 6-Hour",11.1%
same,VAS Score measured at Rest (median),"[6]; ITT, 9-Hour",3.0
same,VAS Score measured at Rest (median),"[6]; ITT, 12-Hour",2.7
same,"VAS Score measured at Rest, % Reduction vs Placebo","[6]; ITT, 12-Hour",20.6%
same,VAS Score measured at Rest (median),"[6]; ITT, 15-Hour",2.0
same,"VAS Score measured at Rest, % Reduction vs Placebo","[6]; ITT, 15-Hour",31.0%
same,VAS Score measured at Rest (median),"[6]; ITT, 18-Hour",2.0
same,"VAS Score measured at Rest, % Reduction vs Placebo","[6]; ITT, 18-Hour",31.0%
same,VAS Score measured at Rest (median),"[6]; ITT, 21-Hour",2.0
same,"VAS Score measured at Rest, % Reduction vs Placebo","[6]; ITT, 21-Hour",33.3%
same,VAS Score measured at Rest (median),"[6]; ITT, 24-Hour",2.0
same,"VAS Score measured at Rest, % Reduction vs Placebo","[6]; ITT, 24-Hour",31.0%
same,decrease in the mean VAS with movement,[7]; AT,13.9%
same,decrease in the mean VAS with movement,[7]; efficacy evaluable,13.6%
same,decrease in the mean VAS with movement,[7]; intent-to-treat,14.3%
